In PubChem BioAssay AID220 (DTP/NCI, 2004) one finds T/C data, which are given here for nine molecules.

Structures are written as SMILES. “And” between values parts separate entries of the source, which are not always exact repeats. Equal entries are not always repeated. Inconclusive results are not listed.

This test deals with CD8F1 mice, subcutaneous mammary adenocarcinoma, T/C%. In words: NCI In Vivo Anticancer Drug Screen. Data for tumor model Mammary Adenocarcinoma CD8F1 (subcutaneous) in CD8F1. As to conditions: higher = larger tumour. The method in brief: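 Transplantable tumors were established in mice, animals were dosed with compound or vehicle, and survival or tumor size was then measured in both groups. The treated result was divided by the control result.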

[1] abbreviates: endpoint: median tumor weight (est.), dose: 50.0 mg/kg/injection, schedule: Q07DX005 (ip), vehicle: saline with Tween-80.
Where [2] appears, read: endpoint: median tumor weight (est.), dose: 100.0 mg/kg/injection, schedule: Q07DX005 (ip), vehicle: saline with Tween-80.
Setting [3] is: endpoint: median tumor weight (est.), dose: 200.0 mg/kg/injection, schedule: Q07DX005 (ip), vehicle: saline with Tween-80.

As to `C[CH2][Ge]1([CH2]C)[CH2]CC2(CCN(CCCN(C)C)C2)C[CH2]1`, the T/C is 113 % of control (endpoint: mean tumor weight, dose: 25.0 mg/kg/injection, schedule: Q04DX009 (ip), vehicle: saline); 87 % of control (endpoint: mean tumor weight, dose: 50.0 mg/kg/injection, schedule: Q04DX009 (ip), vehicle: saline); 40 % of control (endpoint: mean tumor weight, dose: 100.0 mg/kg/injection, schedule: Q04DX009 (ip), vehicle: saline); 67 % of control (endpoint: median tumor weight (est.), dose: 2.0 mg/kg/injection, schedule: Q07DX005 (ip), vehicle: saline); 57 % of control (endpoint: median tumor weight (est.), dose: 4.0 mg/kg/injection, schedule: Q07DX005 (ip), vehicle: saline); 74 % of control (endpoint: median tumor weight (est.), dose: 16.0 mg/kg/injection, schedule: Q07DX005 (ip), vehicle: saline). Further, the T/C by setting is: (endpoint: median tumor weight (est.), dose: 32.0 mg/kg/injection, schedule: Q07DX005 (ip), vehicle: saline) 55 % of control and 68 % of control; (endpoint: median tumor weight (est.), dose: 64.0 mg/kg/injection, schedule: Q07DX005 (ip), vehicle: saline) 67 % of control and 77 % of control.
In the case of `COc1cc(OC)c(OC)cc1/C=C\c1ccnc2ccccc12`, the T/C is 86 % of control (endpoint: median tumor weight (est.), dose: 50.0 mg/kg/injection, schedule: Q07DX005 (ip), vehicle: Klucel (hydroxypropylcellulose) (HPC)); 55 % of control (endpoint: median tumor weight (est.), dose: 100.0 mg/kg/injection, schedule: Q07DX005 (ip), vehicle: Klucel (hydroxypropylcellulose) (HPC)); 78 % of control (endpoint: median tumor weight (est.), dose: 200.0 mg/kg/injection, schedule: Q07DX005 (ip), vehicle: Klucel (hydroxypropylcellulose) (HPC)).
Turning to `Cc1ccccc1SSc1ccccc1C`, the T/C is 159 % of control under setting [1], 123 % of control under setting [2] and 179 % of control under setting [3].
Take `CCN(CC)CCNc1ccc(CO)c2sc3ccccc3c(=O)c12`: the T/C was 62 % of control (endpoint: median tumor weight (est.), dose: 6.25 mg/kg/injection, schedule: Q07DX005 (ip), vehicle: water); 120 % of control (endpoint: median tumor weight (est.), dose: 12.5 mg/kg/injection, schedule: Q07DX005 (ip), vehicle: clinical formulation); 67 % of control (endpoint: median tumor weight (est.), dose: 12.5 mg/kg/injection, schedule: Q07DX005 (ip), vehicle: water); 82 % of control (endpoint: median tumor weight (est.), dose: 25.0 mg/kg/injection, schedule: Q07DX005 (ip), vehicle: clinical formulation); 51 % of control (endpoint: median tumor weight (est.), dose: 25.0 mg/kg/injection, schedule: Q07DX005 (ip), vehicle: water); 53 % of control (endpoint: median tumor weight (est.), dose: 50.0 mg/kg/injection, schedule: Q07DX005 (ip), vehicle: clinical formulation). The T/C was 39 % of control (endpoint: median tumor weight (est.), dose: 50.0 mg/kg/injection, schedule: Q07DX005 (ip), vehicle: water); 17 % of control (endpoint: median tumor weight (est.), dose: 100.0 mg/kg/injection, schedule: Q07DX005 (ip), vehicle: clinical formulation); 3 % of control (endpoint: median tumor weight (est.), dose: 100.0 mg/kg/injection, schedule: Q07DX005 (ip), vehicle: water).
Turning to `CN(C)c1ccc2c(NCCCCCCNc3ccnc4cc(N(C)C)ccc34)ccnc2c1`, the T/C reads like this: (endpoint: median tumor weight change, dose: 15.62 mg/kg/injection, schedule: Q01DX001 (ip), vehicle: distilled water + Tween-80 + alcohol) 66 % of control; (endpoint: median tumor weight change, dose: 31.0 mg/kg/injection, schedule: Q01DX001 (ip), vehicle: distilled water + Tween-80 + alcohol) 94 % of control; (endpoint: median tumor weight change, dose: 31.25 mg/kg/injection, schedule: Q01DX001 (ip), vehicle: distilled water + Tween-80 + alcohol) 96 % of control; (endpoint: median tumor weight change, dose: 62.5 mg/kg/injection, schedule: Q01DX001 (ip), vehicle: distilled water + Tween-80 + alcohol) 3 % of control; (endpoint: median tumor weight change, dose: 62.5 mg/kg/injection, schedule: Q01DX001 (ip), vehicle: distilled water + Tween-80) 48 % of control; (endpoint: median tumor weight change, dose: 125.0 mg/kg/injection, schedule: Q01DX001 (ip), vehicle: distilled water + Tween-80 + alcohol) 51 % of control. For the same molecule, the T/C (endpoint: median tumor weight change, dose: 250.0 mg/kg/injection, schedule: Q01DX001 (ip), vehicle: distilled water + Tween-80 + alcohol) is 8 % of control and 28 % of control.
For `C/C=C\C1OC1(C)c1cc(=O)c2c(C)cc3c(c2o1)C(=O)c1c(O)c(C2CC(C)(N(C)C)C(OC(C)=O)C(C)O2)cc(C2CC(N(C)C)C(O)C(C)O2)c1C3=O` (stereo not drawn), the T/C is 69 % of control (endpoint: median tumor weight change, dose: 0.31 mg/kg/injection, schedule: Q01DX001 (ip), vehicle: saline + alcohol); 85 % of control (endpoint: median tumor weight change, dose: 0.62 mg/kg/injection, schedule: Q01DX001 (ip), vehicle: saline + alcohol); 70 % of control (endpoint: median tumor weight change, dose: 1.25 mg/kg/injection, schedule: Q01DX001 (ip), vehicle: saline + alcohol); 31 % of control (endpoint: median tumor weight change, dose: 2.5 mg/kg/injection, schedule: Q01DX001 (ip), vehicle: saline + alcohol); 34 % of control (endpoint: median tumor weight change, dose: 5.0 mg/kg/injection, schedule: Q01DX001 (ip), vehicle: saline + alcohol); 25 % of control (endpoint: median tumor weight change, dose: 10.0 mg/kg/injection, schedule: Q01DX001 (ip), vehicle: saline + alcohol).
On to `CN(C)c1nc(N(C)C)nc(N(C)C)n1`, for which the T/C runs as follows: (endpoint: mean tumor weight, dose: 75.0 mg/kg/injection, schedule: Q01DX009 (ip), vehicle: saline) 64 % of control; (endpoint: mean tumor weight, dose: 150.0 mg/kg/injection, schedule: Q01DX009 (ip), vehicle: saline) 94 % of control; (endpoint: mean tumor weight, dose: 250.0 mg/kg/injection, schedule: Q07DX006 (ip), vehicle: saline) 108 % of control; (endpoint: mean tumor weight, dose: 300.0 mg/kg/injection, schedule: Q01DX009 (ip), vehicle: saline) 8 % of control; (endpoint: mean tumor weight, dose: 300.0 mg/kg/injection, schedule: Q07DX006 (ip), vehicle: saline) 113 % of control; (endpoint: median tumor weight (est.), dose: 12.5 mg/kg/injection, schedule: Q07DX006 (ip), vehicle: saline with Tween-80) 100 % of control. Also, the T/C is 171 % of control (endpoint: median tumor weight (est.), dose: 16.0 mg/kg/injection, schedule: Q07DX005 (ip), vehicle: saline with Tween-80); 80 % of control (endpoint: median tumor weight (est.), dose: 25.0 mg/kg/injection, schedule: Q07DX005 (ip), vehicle: saline with Tween-80); 54 % of control (endpoint: median tumor weight (est.), dose: 25.0 mg/kg/injection, schedule: Q07DX006 (ip), vehicle: saline with Tween-80); 31 % of control (endpoint: median tumor weight (est.), dose: 32.0 mg/kg/injection, schedule: Q07DX005 (ip), vehicle: acid diluted with saline); 179 % of control (endpoint: median tumor weight (est.), dose: 32.0 mg/kg/injection, schedule: Q07DX005 (ip), vehicle: saline with Tween-80); 73 % of control under setting [1]. Besides, the T/C runs as follows: (endpoint: median tumor weight (est.), dose: 50.0 mg/kg/injection, schedule: Q07DX006 (ip), vehicle: saline with Tween-80) 50 % of control; (endpoint: median tumor weight (est.), dose: 64.0 mg/kg/injection, schedule: Q07DX005 (ip), vehicle: acid diluted with saline) 39 % of control; (endpoint: median tumor weight (est.), dose: 64.0 mg/kg/injection, schedule: Q07DX005 (ip), vehicle: saline with Tween-80) 212 % of control and 76 % of control; under setting [2], 62 % of control; (endpoint: median tumor weight (est.), dose: 100.0 mg/kg/injection, schedule: Q07DX006 (ip), vehicle: saline with Tween-80) 78 % of control; (endpoint: median tumor weight (est.), dose: 128.0 mg/kg/injection, schedule: Q07DX005 (ip), vehicle: acid diluted with saline) 53 % of control. Further, the T/C reads like this: under setting [3], 44 % of control; (endpoint: median tumor weight (est.), dose: 200.0 mg/kg/injection, schedule: Q07DX006 (ip), vehicle: saline with Tween-80) 5 % of control; (endpoint: median tumor weight (est.), dose: 256.0 mg/kg/injection, schedule: Q07DX005 (ip), vehicle: acid diluted with saline) 29 % of control; (endpoint: median tumor weight change, dose: 100.0 mg/kg/injection, schedule: Q01DX001 (ip), vehicle: acid diluted with saline) 103 % of control and 104 % of control; (endpoint: median tumor weight change, dose: 200.0 mg/kg/injection, schedule: Q01DX001 (ip), vehicle: acid diluted with saline) 61 % of control; (endpoint: median tumor weight change, dose: 800.0 mg/kg/injection, schedule: Q01DX001 (ip), vehicle: acid diluted with saline) 37 % of control and 51 % of control.
Consider `COc1ccc2[nH]c3c(c2c1)CCNC3CC(C)CCC=C(C)C` (stereo not drawn), for which the T/C (endpoint: median tumor weight change, dose: 15.62 mg/kg/injection, schedule: Q01DX001 (ip), vehicle: Klucel (hydroxypropylcellulose) (HPC)) was 118 % of control; the T/C (endpoint: median tumor weight change, dose: 25.0 mg/kg/injection, schedule: Q01DX001 (ip), vehicle: Klucel (hydroxypropylcellulose) (HPC)) was 100 % of control; the T/C (endpoint: median tumor weight change, dose: 31.25 mg/kg/injection, schedule: Q01DX001 (ip), vehicle: Klucel (hydroxypropylcellulose) (HPC)) is 197 % of control; the T/C (endpoint: median tumor weight change, dose: 50.0 mg/kg/injection, schedule: Q01DX001 (ip), vehicle: Klucel (hydroxypropylcellulose) (HPC)) was 64 % of control; the T/C (endpoint: median tumor weight change, dose: 100.0 mg/kg/injection, schedule: Q01DX001 (ip), vehicle: Klucel (hydroxypropylcellulose) (HPC)) is 51 % of control; the T/C (endpoint: median tumor weight change, dose: 125.0 mg/kg/injection, schedule: Q01DX001 (ip), vehicle: Klucel (hydroxypropylcellulose) (HPC)) was 159 % of control.
Take `O=C(Oc1ccccc1)c1cc(O)c(O)c(O)c1`: the T/C runs as follows: (endpoint: median tumor weight change, dose: 150.0 mg/kg/injection, schedule: Q01DX001 (ip), vehicle: suspension in saline) 98 % of control; (endpoint: median tumor weight change, dose: 300.0 mg/kg/injection, schedule: Q01DX001 (ip), vehicle: suspension in saline) 111 % of control.
